Reference: US4737504A, “5-fluoro-and 8-fluoro-trimetoquinol compounds and the processes for their preparation” (priority 1986, dated 1988)
Where two headings read alike, the source gives them in different places.

Tests used:
adrenergic receptors = settings: background; cited from earlier work
[1] = molecular target: T1, U46619-induced contractions of rat thoracic aorta (Rattus norvegicus, UniProt P34978); test: antagonism of U46619-induced contractions of rat thoracic aorta; assay type: cell-based, rat (male Sprague-Dawley); settings: no analog (None); n = 16; read-out: pD2 of U46619 (control) (converted)
T1 construct: A 2-3 cm segment of thoracic aorta was excised; tissue Harlan Industries, Inc., Cumberland, IN (animals); host or cells: rat thoracic aorta, spirally cut strips
T1 sequence (P34978 1-341): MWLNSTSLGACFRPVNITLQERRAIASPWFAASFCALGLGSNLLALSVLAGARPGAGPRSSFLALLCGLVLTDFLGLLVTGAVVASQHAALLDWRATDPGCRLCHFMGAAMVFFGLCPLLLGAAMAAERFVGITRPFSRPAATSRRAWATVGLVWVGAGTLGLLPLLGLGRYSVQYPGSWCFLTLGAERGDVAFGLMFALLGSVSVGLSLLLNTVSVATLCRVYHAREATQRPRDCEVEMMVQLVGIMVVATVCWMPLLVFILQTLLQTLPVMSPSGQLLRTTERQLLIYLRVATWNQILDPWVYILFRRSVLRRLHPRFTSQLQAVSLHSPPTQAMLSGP
Protocol: The vasoconstrictive activity of U46619 (a stable thromboxane A2 agonist) on thoracic aorta tissue was determined as follows: Male Sprague-Dawley rats (Harlan Industries, Inc., Cumberland, IN) weighing between 250 and 350 gm were stunned and killed by cervical dislocation. A 2-3 cm segment of thoracic aorta was excised, cleaned of any adhering fat and connecting tissue, spirally cut into 2 matched strips, Constantine, supra. (2.0×0.3 cm). Strips were mounted in 10 ml tissue baths filled with the physiological salt solution in which 3×10^-6 M indomethaecin was present. A tension of 1 gm was applied to the strips. Responses of the tissues to drugs were monitored via Grass FT-03 isometric force transducers connected to a Grass Model 7C polygraph (Grass Instruments Co., Quincy, MA).
Some experiments were done in the absence of indomethacin. Concentration-dependent responses to U46619 were constructed in each preparation as described by Van Rossum, supra.
Effective concentration-50 (EC50) values of the agonists were determined graphically from individual plots of percent response versus log concentration. The potency of each agonist was expressed as a pD2 value where pD2 is equal to the negative logarithm of the experimentally determined EC50 value.
Antagonists were quantitated by calculating their pKB or pA2 values according to the methods of Furchgott, Ann. N.Y. Acad. Sci., 139: 553-570 (1967) and Arunlakshana et al., Br. J. Pharmacol., 14: 48-58 (1959). The pKB value is equivalent to the -log of [I]/(CR-1), where pKB is the negative logarithm of the apparent dissociation constant of the antagonist (KB), [I] is the concentration of the antagonist, and CR is the concentration ratio of the agonist EC50 in the presence of antagonist to the agonist EC50 in the absence of antagonist. To determine significant differences between pD2, pKB or pA2 values, a 5% level of significance was used. Arunlakshana plots were analyzed by computer according to the method of Tallarida et al., Manual of Pharmacological Calculations With Computer Programs, 29-31, (1981).

[2] = system: human platelets (U46619-induced aggregation); test: inhibition of U46619-induced platelet aggregation in presence of aspirin, human platelet-rich plasma; assay type: cell-based
Protocol: (§1) The antiaggregatory and antisecretory activity on human platelets was determined by evaluating the in vitro aggregation and [^14 C]serotonin secretion in human platelet preparations. Blood was taken by venipuncture from normal human volunteers who were reported to be free of medication for at least 10 days before blood drawing. Venous blood samples were mixed with acid-citrate dextrose solution (9:1) and centrifuged at 120×g for 15 minutes at room temperature to obtain platelet-rich plasma, PRP, (Huzoor-Akbar et al., Biochem. Pharmacol., 30: 2013-2020, 1981). The PRP was transferred to polypropylene tubes and stored under an atmosphere of 8% CO2. The remaining blood was centrifuged at 1000×g for 10 minutes to obtain platelet-poor plasma. […] Platelet counts varied between 280,000 to 320,000 per cmm or were adjusted to 300,000 per cmm for the aggregation and secretion experiments. All studies were conducted within 2 hours after PRP recovery.
(§2) For aggregation studies, 0.5 ml of PRP was incubated with drug or vehicle (1-5 μl) for 1 minute at 37° C. before the initiation of aggregation with inducers. […] In all experiments, the minimum concentration of inducer (adenosine diphosphate ADP; epinephrine, E; 15S-hydroxy-11α,9α-epoxymethanoprosta-5Z,13E-dienoic acid, U46619; collagen; and arachidonic acid, AA) which caused maximal irreversible aggregation within each PRP preparation was used. Aggregation was monitored for 4 to 6 minutes after the addition of an inducer and data were presented as a percentage inhibition of either slope or maximal light transmittance changes in the presence of varying drug concentrations.

[3] = system: human platelets (arachidonic acid-induced serotonin secretion); test: inhibition of arachidonic acid-induced serotonin secretion, human platelet-rich plasma; assay type: cell-based
Protocol: as §1, §2
(§3) Secretion data were calculated as the net increase of serotonin released into the supernatant by each inducer and expressed as a percentage of the total radioactivity in platelets Mayo et al., Biochem. Pharmacol., 30: 2237-2241, 1981. The effect of compounds on serotonin release was expressed as the percentage of inhibition of the maximum release by each inducer and plotted against the log molar concentrations of each agent.

[4] = system: human platelets (ADP-induced aggregation); test: inhibition of the secondary phase of ADP-induced platelet aggregation, human platelet-rich plasma; assay type: cell-based
Protocol: as §1, §2

[5] = system: human platelets (collagen-induced serotonin secretion); test: inhibition of collagen-induced serotonin secretion, human platelet-rich plasma; assay type: cell-based
Protocol: as §1, §2, §3

[6] = background; cited from earlier work
[7] = system: human platelets (U46619-induced serotonin secretion); test: inhibition of U46619-induced serotonin secretion in presence of aspirin, human platelet-rich plasma; assay type: cell-based
Protocol: as §1, §2, §3

[8] = phenol acidities (pKa) determined spectrophotometrically; assay type: physicochemical; settings: phenol; tris(hydroxymethyl)aminomethane buffer; UV
Protocol: Phenol acidities (pKa) were determined spectrophotometrically, as described by Albert et al., "The determination of Ionization Constants" 3rd Ed., Chapman and Hall, London and New York, 1984, by measuring the absorption as a function of pH in tris(hydroxymethyl)aminomethane buffer. Since the catechols tended to oxidize in basic media the buffers were degassed and flushed with argon prior to use.

[9] = system: human platelets (ADP-induced serotonin secretion); test: inhibition of ADP-induced serotonin secretion, human platelet-rich plasma; assay type: cell-based
Protocol: as §1, §2, §3

[10] = molecular target: T2, β2-adrenoceptors (guinea pig trachea) (Cavia porcellus, UniProt Q8K4Z4); test: relaxation of carbachol-contracted guinea pig tracheal strips (β2-adrenergic activity); assay type: cell-based, guinea pig (male albino Hartley)
T2 construct: the atria and trachea were quickly removed by standard procedures; tissue Glenn Carr, Columbus, OH (animals); host or cells: guinea pig trachea, spirally cut strips
Protocol: (§4) The β2 /β1 -adrenergic activity was determined using the following procedure: Male albino Hartley guinea pigs were employed in all experiments. The isolation and procedures for testing of each compound (10^-9 to 3×10^-5 M) with isolated guinea pig atria and trachea were identical with those described by Sober et al., J. Med. Chem., 24: 970, 1981.
Male guinea pigs (Hartley strain, Glenn Carr, Columbus, OH) weighing between 400 and 700 grams were reserpinized (5 mg/kg, i.p.) 12-16 hours before experiments. Animals were sacrificed by a sharp blow to the head and the atria and trachea were quickly removed by standard procedures (The Staff, University of Edinburgh, "Pharmacological Experiments on Isolated Preparation", Livingston, London, pp. 104-111, 1970). Trachea were spirally cut into 2 to 4 matched strips (Constantine, J. Pharm. Pharmac., 17: 34-35, 1965). Spontaneously beating atria and tracheal strips were mounted in 10 ml tissue baths filled with Krebs-Heinsleit solution (millimolar concentrations: NaCl, 118; KCl, 4.7; CaCl2 -2H2 O, 2.5; MgCl2 -6H2 O, 5.0; NaH2 PO4 H2 O, 1.0; NaHCO3, […]; and dextrose, 11) warmed to 37° C. and bubbled with 95% O2 :5% CO2. Tensions of 1 and 3 gm were applied to the atria and trachea, respectively.
Following a minimum 1 hour equilibration period, a concentration of 3×10^-7 M carbachol was administered to the strips.
(§5) Each drug concentration was added only after the effects of the previous concentration reached a maximum and remained constant. […] Responses for agonists were expressed as pD2 values (-log EC50) values and were calculated directly from graphical plots of % maximal response versus log molar drug concentration.

[11] = system: human platelets (collagen-induced aggregation); test: inhibition of collagen-induced platelet aggregation, human platelet-rich plasma; assay type: cell-based
Protocol: as §1, §2

[12] = system: human platelets (epinephrine-induced aggregation); test: inhibition of the secondary phase of epinephrine-induced platelet aggregation, human platelet-rich plasma; assay type: cell-based
Protocol: as §1, §2

human platelets [13] = test: human platelet aggregation and serotonin release, inducers taken together; assay type: cell-based; settings: each inducer
Protocol: as §1, §2, §3

[14] = system: human platelets (epinephrine-induced serotonin secretion); test: inhibition of epinephrine-induced serotonin secretion, human platelet-rich plasma; assay type: cell-based
Protocol: as §1, §2, §3

[15] = molecular target: T3, β1-adrenoceptors (guinea pig atria) (Cavia porcellus, UniProt H0W3H1); test: chronotropic response of spontaneously beating guinea pig right atria (β1-adrenergic activity); assay type: cell-based, guinea pig (male albino Hartley); settings: read-out: IAR ± SEM (intrinsic activity ratio)
T3 construct: the atria and trachea were quickly removed by standard procedures; tissue Glenn Carr, Columbus, OH (animals); host or cells: guinea pig right atria, spontaneously beating
Protocol: as §4
Male guinea pigs (Hartley strain, Glenn Carr, Columbus, OH) weighing between 400 and 700 grams were reserpinized (5 mg/kg, i.p.) 12-16 hours before experiments. Animals were sacrificed by a sharp blow to the head and the atria and trachea were quickly removed by standard procedures (The Staff, University of Edinburgh, "Pharmacological Experiments on Isolated Preparation", Livingston, London, pp. 104-111, 1970). Trachea were spirally cut into 2 to 4 matched strips (Constantine, J. Pharm. Pharmac., 17: 34-35, 1965). […]
as §5

[16] = system: human platelets (arachidonic acid-induced aggregation); test: inhibition of arachidonic acid-induced platelet aggregation, human platelet-rich plasma; assay type: cell-based
Protocol: as §1, §2

human platelets [17] = settings: in vitro, background; cited from earlier work
[18] = cited from earlier work
[19] = read-out: IC50 platelet aggregation
[20] = read-out: pIC50 platelet aggregation (converted)
[21] = read-out: IC50 serotonin secretion
[22] = read-out: pIC50 serotonin secretion (converted)
[23] = read-out: IC50 platelet aggregation (secondary phase)
[24] = read-out: pIC50 platelet aggregation (secondary phase) (converted)

T2 sequence (Q8K4Z4 whole entry): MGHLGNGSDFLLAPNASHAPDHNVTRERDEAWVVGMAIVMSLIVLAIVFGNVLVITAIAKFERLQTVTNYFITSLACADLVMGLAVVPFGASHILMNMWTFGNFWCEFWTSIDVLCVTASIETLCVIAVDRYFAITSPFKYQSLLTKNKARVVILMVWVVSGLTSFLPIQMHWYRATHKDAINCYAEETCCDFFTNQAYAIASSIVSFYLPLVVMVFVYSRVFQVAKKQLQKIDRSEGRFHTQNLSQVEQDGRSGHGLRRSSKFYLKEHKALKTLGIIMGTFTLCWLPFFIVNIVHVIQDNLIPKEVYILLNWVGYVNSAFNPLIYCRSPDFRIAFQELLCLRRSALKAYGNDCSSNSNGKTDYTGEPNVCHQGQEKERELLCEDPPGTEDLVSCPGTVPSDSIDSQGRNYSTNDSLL
T3 sequence (H0W3H1 1-470): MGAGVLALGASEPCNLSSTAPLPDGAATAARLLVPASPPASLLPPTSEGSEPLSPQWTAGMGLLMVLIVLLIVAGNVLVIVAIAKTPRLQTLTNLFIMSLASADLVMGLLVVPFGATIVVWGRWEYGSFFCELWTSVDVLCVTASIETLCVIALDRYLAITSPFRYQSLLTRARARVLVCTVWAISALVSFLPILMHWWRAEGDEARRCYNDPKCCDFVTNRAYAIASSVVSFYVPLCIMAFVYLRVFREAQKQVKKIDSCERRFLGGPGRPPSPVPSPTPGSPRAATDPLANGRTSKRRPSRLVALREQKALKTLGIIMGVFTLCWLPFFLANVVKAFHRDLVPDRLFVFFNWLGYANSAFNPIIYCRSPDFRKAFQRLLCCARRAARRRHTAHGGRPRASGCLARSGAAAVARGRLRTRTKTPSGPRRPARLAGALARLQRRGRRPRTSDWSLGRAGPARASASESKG

NCC(O)c1ccc(O)c(O)c1F (stereo not shown)
adrenergic receptor activity/selectivity (adrenergic receptors): selective β-adrenergic agonist

NCCc1ccc(O)c(O)c1F [2-fluoro-dopamine]
adrenergic receptor activity/selectivity (adrenergic receptors): do not show selectivity for adrenergic receptors

NCC(O)c1cc(O)c(O)cc1F (stereo not shown) [6-fluoro analog of norepinephrine]
adrenergic receptor activity/selectivity (adrenergic receptors): selective β-adrenergic agonist

NCCc1cc(O)c(O)cc1F [6-fluoro-dopamine]
adrenergic receptor activity/selectivity (adrenergic receptors): do not show selectivity for adrenergic receptors

CCCCC[C@H](O)/C=C/[C@@H]1[C@@H](C/C=C\CCCC(=O)O)[C@H]2CO[C@@H]1C2 [Compound U46619, 15S-hydroxy-11α,9α-epoxymethanoprosta-5Z,13E-dienoic acid, reference compound]
EC50 [1]: 6.76 nM

CNC[C@H](O)c1ccc(O)c(O)c1 [R-(-)-epinephrine]
adrenergic receptor activity/selectivity (adrenergic receptors): more active than S-(+)-epinephrine on both α- and β-adrenergic receptors

COc1cc(CC2NCCc3cc(O)c(O)cc32)cc(OC)c1OC (stereo not shown) [TMQ, trimetoquinol]
IC50 [2, 19]: 440 nM
IC50 [2, 20]: 437 nM
IC50 [3, 21]: 1330 nM
IC50 [3, 22]: 1260 nM
IC50 [4, 23]: 340 nM
IC50 [4, 24]: 269 nM
IC50 [5, 21]: 620 nM
IC50 [5, 22]: 589 nM
side effects [6]: undesirable effect of also increasing the β1 -adrenergic activity which stimulates the heart
IC50 [7, 21]: 720 nM
IC50 [7, 22]: 692 nM
pKa [8]: 8.77 ± 0.15
IC50 [9, 21]: 230 nM
IC50 [9, 22]: 200 nM
EC50 [10]: 57.5 nM
agonist activity on tracheal relaxation [10]: nearly equally active as an agonist on tracheal relaxation
Emax ([10]; guinea pig, read-out: IAR ± SEM (intrinsic activity ratio)): 95 ± 1%
IC50 [11, 19]: 930 nM
IC50 [11, 20]: 933 nM
IC50 [12, 23]: 1730 nM
IC50 [12, 24]: 1660 nM
inhibition of aggregation and serotonin release (human platelets [13]): inhibitors of aggregation and serotonin release by each inducer
IC50 [14, 21]: 1150 nM
IC50 [14, 22]: 1020 nM
Emax [15]: 100%
IC50 [16, 19]: 1040 nM
IC50 [16, 20]: 1050 nM
effect on arachidonic acid-mediated platelet aggregation (human platelets [17]): blocks endoperoxide/thromboxane arachidonic acid-mediated in vitro aggregation of human platelets

CNC[C@H](O)c1ccc(O)c(O)c1 [epinephrine]
side effects [6]: tachycardia, elevated blood pressure, headache, and tremors
adrenergic receptor activity/selectivity (adrenergic receptors): stimulates both α- and β-adrenergic receptors to about the same degree

CC(C)NCC(O)c1ccc(O)c(O)c1 (stereo not shown) [isoproterenol]
side effects [6]: undesirable tachycardia, increase in cardiac output and an elevation in blood pressure
adrenergic receptor activity/selectivity (adrenergic receptors): possesses little tissue selectivity and stimulates both β1 - and β2 -adrenergic receptors
duration of action ([18]; averaging): 1.5 to 2 h
onset of action ([18]; bronchodilator, inhalation): 2 to 5 min
